Measured values: publication PMC3258025 (Molecular Cancer Therapeutics, 2010)

Key:
OCT1 [1] = biological target: T1, OCT1 (Homo sapiens, UniProt O15245); conditions: 10 μmol/L, 30 minutes; picoplatin in PB-Cl, monoaqua and diaqua complexes in PB-SO4
T1 sequence (O15245 1-554): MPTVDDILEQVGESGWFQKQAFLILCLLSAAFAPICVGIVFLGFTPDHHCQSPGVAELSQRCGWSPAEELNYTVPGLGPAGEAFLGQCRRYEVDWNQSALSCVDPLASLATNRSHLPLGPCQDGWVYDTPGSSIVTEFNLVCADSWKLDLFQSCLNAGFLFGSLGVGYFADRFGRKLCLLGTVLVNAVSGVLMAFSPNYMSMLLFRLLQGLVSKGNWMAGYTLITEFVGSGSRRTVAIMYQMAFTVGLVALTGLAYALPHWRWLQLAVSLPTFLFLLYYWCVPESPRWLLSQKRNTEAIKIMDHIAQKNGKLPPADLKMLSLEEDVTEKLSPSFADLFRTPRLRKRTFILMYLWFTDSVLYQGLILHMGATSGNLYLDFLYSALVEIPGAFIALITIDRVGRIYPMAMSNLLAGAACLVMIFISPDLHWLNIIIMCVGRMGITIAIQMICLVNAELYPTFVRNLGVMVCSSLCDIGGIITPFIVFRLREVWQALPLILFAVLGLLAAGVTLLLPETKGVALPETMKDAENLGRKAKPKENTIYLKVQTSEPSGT

HEK-hOCT1 cells = assay: MTT cytotoxicity assay in OCT1-transfected HEK293 cells; assay type: cell-based, human; conditions: disopyramide 150 μmol/L
OCT1 [2] = biological target: T1, OCT1; assay: Platinum-DNA adduct formation in HEK-hOCT1 cells; assay type: cell-based; conditions: disopyramide 150 μmol/L, P < 0.001
HEK293 cells = assay: MTT cytotoxicity of the OCT inhibitors themselves; assay type: cell-based, human; conditions: same experimental conditions as picoplatin MTT assay; data not shown
OCT3 = biological target: T2, OCT3 (Homo sapiens, UniProt O75751); conditions: corticosterone 10 μmol/L, P < 0.001
T2 sequence (O75751 1-556): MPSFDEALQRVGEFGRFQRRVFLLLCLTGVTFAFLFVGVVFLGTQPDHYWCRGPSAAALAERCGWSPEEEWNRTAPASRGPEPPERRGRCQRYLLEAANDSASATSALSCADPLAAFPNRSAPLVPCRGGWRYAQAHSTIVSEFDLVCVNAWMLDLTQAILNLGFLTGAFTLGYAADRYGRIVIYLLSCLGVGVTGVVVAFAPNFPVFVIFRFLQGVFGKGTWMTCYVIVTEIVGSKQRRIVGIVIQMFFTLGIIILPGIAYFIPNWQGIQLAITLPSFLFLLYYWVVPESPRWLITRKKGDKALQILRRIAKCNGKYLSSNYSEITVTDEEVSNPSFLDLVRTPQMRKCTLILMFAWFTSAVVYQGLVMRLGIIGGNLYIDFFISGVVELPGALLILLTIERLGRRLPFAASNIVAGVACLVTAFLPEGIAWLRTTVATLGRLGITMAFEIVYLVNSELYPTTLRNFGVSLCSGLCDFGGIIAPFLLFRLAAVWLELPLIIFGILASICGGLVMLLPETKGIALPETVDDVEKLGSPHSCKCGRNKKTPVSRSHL

[3] = system: lung cancer cell lines (A549, H460, H838, and H1703); assay: MTT cytotoxicity, summary over the four lung cancer cell lines; assay type: cell-based, human; conditions: cimetidine 3 mmol/L, 4-hour exposure

SMILES | Concentration up to which the inhibitor itself did not exhibit any cytotoxicity (HEK293 cells) [µM] | Change in IC50 values in the presence of cimetidine [3] | also measured
Cc1cccc[n+]1[Pt-2]([NH3+])([OH2+])[Cl] (centres unmarked) [monoaqua complex of picoplatin, [Pt(NH3)(2-Pic)(H2O)(Cl)]+] |  |  | Preference of platinum uptake in OCT1-expressing cells over the corresponding EV cells (OCT1 [1]): equal additional preference in OCT1-expressing cells
CC(C)N(CCC(C(N)=O)(c1ccccc1)c1ccccn1)C(C)C (centres unmarked) [disopyramide] | > 400 |  | Increase of picoplatin IC50 by coincubation of OCT1 inhibitor (HEK-hOCT1 cells): 5.9 fold; Effect of OCT1 inhibitor on platinum-DNA adduct formation in HEK-hOCT1 cells (OCT1 [2]): inhibitable
C[C@]12C[C@H](O)[C@H]3[C@@H](CCC4=CC(=O)CC[C@@]43C)[C@@H]1CC[C@@H]2C(=O)CO [corticosterone] |  |  | Effect of OCT3 inhibitor on picoplatin-DNA adduct level in HEK-hOCT3 cells (OCT3): completely inhibited
N.N.O=C([O-])C1(C(=O)[O-])CCC1.[Pt+2] [Carboplatin] |  | no significant change in the IC50 values | 
N.N.[Cl][Pt][Cl] [Cisplatin] |  | no significant change in the IC50 values | 
CN/C(=N/CCSCc1nc[nH]c1C)NC#N [cimetidine] | > 5000 |  | 
